Source: PMC7517831, “Integrating Machine Learning-Based Virtual Screening With Multiple Protein Structures and Bio-Assay Evaluation for Discovery of Novel GSK3β Inhibitors” (Frontiers in Pharmacology, 2020)

Target: T1, Glycogen synthase kinase-3β (GSK3β) (Homo sapiens, UniProt P49841)
T1 construct: gene GSK3B
Test: ADP-Glo luminescent kinase assay, nine-point dose curve
Type: biochemical

T1 sequence (P49841 whole entry): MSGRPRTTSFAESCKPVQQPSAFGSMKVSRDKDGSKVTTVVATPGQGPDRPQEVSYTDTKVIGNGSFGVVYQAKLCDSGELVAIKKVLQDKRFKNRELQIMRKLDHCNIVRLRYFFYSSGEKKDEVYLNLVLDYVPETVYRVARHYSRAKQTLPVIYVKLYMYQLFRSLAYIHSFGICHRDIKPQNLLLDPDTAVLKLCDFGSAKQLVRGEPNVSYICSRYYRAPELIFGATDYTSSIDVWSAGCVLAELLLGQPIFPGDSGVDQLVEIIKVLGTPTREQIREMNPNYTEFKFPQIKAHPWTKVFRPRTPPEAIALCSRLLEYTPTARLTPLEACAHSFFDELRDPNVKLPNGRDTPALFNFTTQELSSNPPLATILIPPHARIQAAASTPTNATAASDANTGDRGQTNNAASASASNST

Q: For CC(C)(C)[C@H]1CCc2[nH]nc(C(=O)NC3CC3)c2C1 [Cpd49], which IC50 is on record?
A: Its IC50 is 9.34 µM.

Q: Which IC50 does the source give for COc1cccc(-n2c(=S)sc3c(=O)[nH]c(SCC(=O)Nc4cccc(Cl)c4)nc32)c1 [Cpd22] here?
A: Its IC50 is 15.5 µM.
